This note sets out measurements from patent publication US8637499B2, “Benzoxazepines as inhibitors of PI3K/mTOR and methods of their use and manufacture” (Exelixis, Inc., priority 2009, dated 2014).

Like-named read-outs stand apart in the source and are kept apart here.

The target of one assay is mTORC1 (mTOR/GbL/Raptor) (Homo sapiens, UniProt P42345). The assay is described as follows: mTOR/GbL/Raptor (mTORC1) ELISA Assay. The assay is classed as biochemical. Particulars: 0.2 nM mTORC1, 10 μM ATP, 50 nM NHis-tagged 4E-BP1, phosphorylation of 4E-BP1. The gist of the method: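 Detection used Ni-chelate capture of His-tagged 4E-BP1, then anti-phospho-4E-BP1 and HRP anti-IgG with luminescent ELISA substrate. Reactions ran 120 min at ambient temperature with 0.2 nM mTORC1, 10 μM ATP, 50 nM 4E-BP1, 10 mM MnCl2, pH 7.2 Hepes.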
For orientation: In an ELISA, binding on a coated surface is turned into a signal by an enzyme label.

In a further assay the target is PI3Kα (Homo sapiens, UniProt P42336). The assay is described as follows: PI3K Biochemical Assays (ATP consumption, luciferase-luciferin chemiluminescence). The settings on record: PI3Kα 1.5 nM, ATP 1 μM, PIP2 10 μM; percent of ATP consumed. Put shortly: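 Enzyme (1.5 nM), PIP2 substrate (10 μM) and ATP (1 μM) react about 2 h at room temperature in Tris buffer pH 7.5 with MgCl2, EGTA, DTT and CHAPS. Remaining ATP detected by Kinase-Glo luminescence; total consumption limited to 40-60%.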
PI3Kα, sequence (P42336 whole entry): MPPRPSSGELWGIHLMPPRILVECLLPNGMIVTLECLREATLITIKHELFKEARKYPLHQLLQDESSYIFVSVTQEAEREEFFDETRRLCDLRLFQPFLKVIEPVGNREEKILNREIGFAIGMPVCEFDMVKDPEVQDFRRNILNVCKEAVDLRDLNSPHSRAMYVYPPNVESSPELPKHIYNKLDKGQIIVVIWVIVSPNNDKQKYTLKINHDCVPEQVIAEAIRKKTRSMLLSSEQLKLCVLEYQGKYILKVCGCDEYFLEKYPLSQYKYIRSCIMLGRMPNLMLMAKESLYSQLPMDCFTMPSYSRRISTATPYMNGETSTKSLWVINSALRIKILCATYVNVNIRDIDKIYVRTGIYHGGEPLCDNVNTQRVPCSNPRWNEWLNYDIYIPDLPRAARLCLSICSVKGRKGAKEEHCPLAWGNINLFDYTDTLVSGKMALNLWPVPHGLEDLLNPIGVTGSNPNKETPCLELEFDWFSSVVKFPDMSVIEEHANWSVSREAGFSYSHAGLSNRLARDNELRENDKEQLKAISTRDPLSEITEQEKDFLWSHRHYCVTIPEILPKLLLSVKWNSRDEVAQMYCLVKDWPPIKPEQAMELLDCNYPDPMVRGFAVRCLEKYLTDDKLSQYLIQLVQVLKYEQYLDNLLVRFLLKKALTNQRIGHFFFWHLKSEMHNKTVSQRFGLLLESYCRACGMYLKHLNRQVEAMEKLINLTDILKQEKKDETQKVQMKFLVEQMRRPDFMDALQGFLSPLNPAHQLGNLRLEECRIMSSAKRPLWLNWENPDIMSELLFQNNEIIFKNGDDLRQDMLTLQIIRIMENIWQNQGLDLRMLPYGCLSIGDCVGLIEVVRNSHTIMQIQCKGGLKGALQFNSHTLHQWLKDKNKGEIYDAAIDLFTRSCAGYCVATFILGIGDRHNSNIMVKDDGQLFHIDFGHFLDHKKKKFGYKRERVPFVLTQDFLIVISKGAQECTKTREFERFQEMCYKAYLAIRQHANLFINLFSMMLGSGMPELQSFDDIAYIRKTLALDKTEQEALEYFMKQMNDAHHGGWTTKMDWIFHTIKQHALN
PI3Kα, sequence (P27986 whole entry partner): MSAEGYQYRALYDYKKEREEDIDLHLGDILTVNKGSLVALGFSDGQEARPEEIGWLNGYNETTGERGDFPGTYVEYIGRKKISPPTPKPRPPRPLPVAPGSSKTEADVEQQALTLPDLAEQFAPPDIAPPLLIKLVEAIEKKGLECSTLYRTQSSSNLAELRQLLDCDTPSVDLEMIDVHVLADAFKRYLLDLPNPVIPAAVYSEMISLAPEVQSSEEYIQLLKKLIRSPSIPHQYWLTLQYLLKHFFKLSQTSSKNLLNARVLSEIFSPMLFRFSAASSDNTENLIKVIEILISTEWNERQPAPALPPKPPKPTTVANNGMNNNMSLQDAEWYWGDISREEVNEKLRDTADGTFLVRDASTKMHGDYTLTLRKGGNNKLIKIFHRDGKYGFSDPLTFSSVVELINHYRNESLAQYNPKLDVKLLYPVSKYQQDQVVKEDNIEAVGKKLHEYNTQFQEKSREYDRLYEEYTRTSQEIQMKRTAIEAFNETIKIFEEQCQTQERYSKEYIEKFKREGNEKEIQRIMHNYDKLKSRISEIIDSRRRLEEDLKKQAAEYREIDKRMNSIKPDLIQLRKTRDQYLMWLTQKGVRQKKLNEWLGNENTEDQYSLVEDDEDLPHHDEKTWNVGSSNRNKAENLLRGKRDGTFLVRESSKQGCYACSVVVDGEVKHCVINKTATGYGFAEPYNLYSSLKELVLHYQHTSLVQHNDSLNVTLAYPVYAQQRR

Usually IC50 stands for the concentration that inhibits the measured activity by half. As to `Cc1nc2ccc(-c3ccc4c(c3)CN(C(=O)N3CCCCC3c3ccc(F)c(F)c3)CCO4)cc2[nH]1` (stereo not drawn) [Compound 114, 4-{[2-(3,4-difluorophenyl)piperidin-1-yl]carbonyl}-7-(2-methyl-1H-benzimidazol-6-yl)-2,3,4,5-tetrahydro-1,4-benzoxazepine], the IC50 at mTORC1 (mTOR/GbL/Raptor) (read-out: IC50) was not above 50 nM; on PI3Kα, not above 75 nM.

Take `Cc1nc2ccc(-c3ccc4c(c3)CN(C(=O)N3CCCCC3c3cc(F)cc(Cl)c3)CCO4)cc2[nH]1` (stereo not drawn) [Compound 116, 4-{[2-(3-chloro-5-fluorophenyl)piperidin-1-yl]carbonyl}-7-(2-methyl-1H-benzimidazol-6-yl)-2,3,4,5-tetrahydro-1,4-benzoxazepine]: the IC50 on mTORC1 (mTOR/GbL/Raptor) (read-out: IC50) was not above 50 nM; against PI3Kα, 75 to 200 nM.

In the case of `Cc1nc2ccc(-c3ccc4c(c3)CN(C(=O)N3CCCCC3c3ccc(F)c(C)c3)CCO4)cc2[nH]1` (stereo not drawn) [Compound 118, 4-{[2-(4-fluoro-3-methylphenyl)piperidin-1-yl]carbonyl}-7-(2-methyl-1H-benzimidazol-6-yl)-2,3,4,5-tetrahydro-1,4-benzoxazepine], the figures for the IC50 at mTORC1 (mTOR/GbL/Raptor) (read-out: IC50) and on PI3Kα were not above 50 nM and 75 to 200 nM, respectively.

For the compound `Cc1nc2ccc(-c3ccc4c(c3)CN(C(=O)N3CCCCC3c3ccc(C(F)(F)F)cc3)CCO4)cc2[nH]1` (stereo not drawn) [Compound 120, 7-(2-methyl-1H-benzimidazol-6-yl)-4-({2-[4-(trifluoromethyl)phenyl]piperidin-1-yl}carbonyl)-2,3,4,5-tetrahydro-1,4-benzoxazepine], the IC50 on mTORC1 (mTOR/GbL/Raptor) (read-out: IC50) is not above 50 nM; against PI3Kα, 200 to 500 nM.

For `Cc1nc2ccc(-c3ccc4c(c3)CN(C(=O)N3CCC(=O)CC3c3ccc(F)c(F)c3)CCO4)cc2[nH]1` (stereo not drawn) [Compound 121, 2-(3,4-difluorophenyl)-1-{[7-(2-methyl-1H-benzimidazol-6-yl)-2,3-dihydro-1,4-benzoxazepin-4(5H)-yl]carbonyl}piperidin-4-one], the results for the IC50 at mTORC1 (mTOR/GbL/Raptor) (read-out: IC50) and against PI3Kα were 50 to 250 nM and 75 to 200 nM, respectively.

Regarding `Cc1nc2ccc(-c3ccc4c(c3)CN(C(=O)N3CCCCCC3c3ccccc3)CCO4)cc2[nH]1` (stereo not drawn) [Compound 122, 7-(2-methyl-1H-benzimidazol-5-yl)-4-[(2-phenylazepan-1-yl)carbonyl]-2,3,4,5-tetrahydro-1,4-benzoxazepine], the results for the IC50 on mTORC1 (mTOR/GbL/Raptor) (read-out: IC50) and against PI3Kα were 250 to 700 nM and 500 to 1000 nM, respectively.

With `Cc1nc2ccc(-c3ccc4c(c3)CN(C(=O)N3CCCCC3c3ccc(C)c(F)c3)CCO4)cc2[nH]1` (stereo not drawn) [Compound 123, 4-{[2-(3-fluoro-4-methylphenyl)piperidin-1-yl]carbonyl}-7-(2-methyl-1H-benzimidazol-6-yl)-2,3,4,5-tetrahydro-1,4-benzoxazepine], the IC50 on mTORC1 (mTOR/GbL/Raptor) (read-out: IC50) is not above 50 nM; against PI3Kα, 75 to 200 nM.

Regarding `Cc1nc2ccc(-c3ccc4c(c3)CN(C(=O)N3CCCCC3c3cccc(Cl)c3)CCO4)cc2[nH]1` (stereo not drawn) [Compound 124, 4-{[2-(3-chlorophenyl)piperidin-1-yl]carbonyl}-7-(2-methyl-1H-benzimidazol-6-yl)-2,3,4,5-tetrahydro-1,4-benzoxazepine], the half-maximal inhibitory concentration (IC50) on mTORC1 (mTOR/GbL/Raptor) (read-out: IC50) is not above 50 nM; against PI3Kα, 75 to 200 nM.

Consider `Cc1nc2ccc(-c3ccc4c(c3)CN(C(=O)N3CCC(=O)CC3c3cccc(F)c3)CCO4)cc2[nH]1` (stereo not drawn) [Compound 125, 2-(3-fluorophenyl)-1-{[7-(2-methyl-1H-benzimidazol-6-yl)-2,3-dihydro-1,4-benzoxazepin-4(5H)-yl]carbonyl}piperidin-4-one], for which the IC50 was not above 50 nM at mTORC1 (mTOR/GbL/Raptor) (read-out: IC50) and 75 to 200 nM against PI3Kα.

On to `Cc1nc2ccc(-c3ccc4c(c3)CN(C(=O)N3CCCCC3c3cccc(C(F)(F)F)c3)CCO4)cc2[nH]1` (stereo not drawn) [Compound 127, 7-(2-methyl-1H-benzimidazol-6-yl)-4-({2-[3-(trifluoromethyl)phenyl]piperidin-1-yl}carbonyl)-2,3,4,5-tetrahydro-1,4-benzoxazepine], for which the values for the concentration for half-maximal inhibition (IC50) at mTORC1 (mTOR/GbL/Raptor) (read-out: IC50) and on PI3Kα were 250 to 700 nM and 200 to 500 nM, respectively.

Take `Cc1nc2ccc(-c3ccc4c(c3)CN(C(=O)N3CCCCC3c3ccc(F)c(Cl)c3)CCO4)cc2[nH]1` (stereo not drawn) [Compound 128, 4-{[2-(3-chloro-4-fluorophenyl)piperidin-1-yl]carbonyl}-7-(2-methyl-1H-benzimidazol-6-yl)-2,3,4,5-tetrahydro-1,4-benzoxazepine]: the IC50 on mTORC1 (mTOR/GbL/Raptor) (read-out: IC50) was not above 50 nM; against PI3Kα it was 75 to 200 nM.

Regarding `Cc1nc2ccc(-c3ccc4c(c3)CN(C(=O)N3CCCCC3c3cc(F)c(F)c(F)c3)CCO4)cc2[nH]1` (stereo not drawn) [Compound 129, 7-(2-methyl-1H-benzimidazol-6-yl)-4-{[2-(3,4,5-trifluorophenyl)piperidin-1-yl]carbonyl}-2,3,4,5-tetrahydro-1,4-benzoxazepine], the IC50 was not above 50 nM on mTORC1 (mTOR/GbL/Raptor) (read-out: IC50) and 75 to 200 nM on PI3Kα.

Regarding `Cc1nc2ccc(-c3ccc4c(c3)CN(C(=O)N3CCCCC3c3cc(F)cc(F)c3)CCO4)cc2[nH]1` (stereo not drawn) [Compound 130, 4-{[2-(3,5-difluorophenyl)piperidin-1-yl]carbonyl}-7-(2-methyl-1H-benzimidazol-6-yl)-2,3,4,5-tetrahydro-1,4-benzoxazepine], the 50% inhibitory concentration (IC50) is not above 50 nM at mTORC1 (mTOR/GbL/Raptor) (read-out: IC50) and not above 75 nM against PI3Kα.

Take `Cc1nc2ccc(-c3ccc4c(c3)CN(C(=O)N3CCCCC3c3ccc(N(C)C)cc3)CCO4)cc2[nH]1` (stereo not drawn) [Compound 131, N,N-dimethyl-4-(1-{[7-(2-methyl-1H-benzimidazol-6-yl)-2,3-dihydro-1,4-benzoxazepin-4(5H)-yl]carbonyl}piperidin-2-yl)aniline]: the figures for the IC50 at mTORC1 (mTOR/GbL/Raptor) (read-out: IC50) and against PI3Kα were 700 to 2600 nM and 1000 to 3000 nM, respectively.

For `Cc1nc2ccc(-c3ccc4c(c3)CN(C(=O)N3CCC(C)(C(N)=O)CC3)CCO4)cc2[nH]1` [Compound 135, 4-methyl-1-{[7-(2-methyl-1H-benzimidazol-6-yl)-2,3-dihydro-1,4-benzoxazepin-4(5H)-yl]carbonyl}piperidine-4-carboxamide], the 50% inhibitory concentration (IC50) is 50 to 250 nM at mTORC1 (mTOR/GbL/Raptor) (read-out: IC50) and 1000 to 3000 nM on PI3Kα.

`Cc1nc2ccc(-c3ccc4c(c3)CN(C(=O)N3CCC(=C(F)F)CC3)CCO4)cc2[nH]1` [Compound 137, 4-{[4-(difluoromethylidene)piperidin-1-yl]carbonyl}-7-(2-methyl-1H-benzimidazol-6-yl)-2,3,4,5-tetrahydro-1,4-benzoxazepine]: the IC50 on mTORC1 (mTOR/GbL/Raptor) (read-out: IC50) is 250 to 700 nM; at PI3Kα, 200 to 500 nM.

On to `Cc1nc2ccc(-c3ccc4c(c3)CN(C(=O)N3CCC(F)(F)CC3c3ccccc3)CCO4)cc2[nH]1` (stereo not drawn) [Compound 138, 4-[(4,4-difluoro-2-phenylpiperidin-1-yl)carbonyl]-7-(2-methyl-1H-benzimidazol-6-yl)-2,3,4,5-tetrahydro-1,4-benzoxazepine], for which the half-inhibitory concentration (IC50) lay within 50 to 250 nM on mTORC1 (mTOR/GbL/Raptor) (read-out: IC50) and 500 to 1000 nM on PI3Kα.

With `Cc1nc2ccc(-c3ccc4c(c3)CN(C(=O)N3CCC(C(C)(C)O)CC3)CCO4)cc2[nH]1` [Compound 139, 2-(1-{[7-(2-methyl-1H-benzimidazol-6-yl)-2,3-dihydro-1,4-benzoxazepin-4(5H)-yl]carbonyl}piperidin-4-yl)propan-2-ol], the IC50 on mTORC1 (mTOR/GbL/Raptor) (read-out: IC50) fell in the range of 50 to 250 nM; at PI3Kα, 1000 to 3000 nM.

As for `Cc1nc2ccc(-c3ccc4c(c3)CN(C(=O)N3CCC(O)(c5ccc(F)cc5)CC3)CCO4)cc2[nH]1` [Compound 142, 4-(4-fluorophenyl)-1-{[7-(2-methyl-1H-benzimidazol-6-yl)-2,3-dihydro-1,4-benzoxazepin-4(5H)-yl]carbonyl}piperidin-4-ol], the IC50 at mTORC1 (mTOR/GbL/Raptor) (read-out: IC50) is not above 50 nM; at PI3Kα, 200 to 500 nM.

On to `Cc1nc2ccc(-c3ccc4c(c3)CN(C(=O)N3C5CCC3c3ccccc35)CCO4)cc2[nH]1` [Compound 143, 9-{[7-(2-methyl-1H-benzimidazol-6-yl)-2,3-dihydro-1,4-benzoxazepin-4(5H)-yl]carbonyl}-1,2,3,4-tetrahydro-1,4-epiminonaphthalene], for which the results for the IC50 on mTORC1 (mTOR/GbL/Raptor) (read-out: IC50) and on PI3Kα were 50 to 250 nM and 200 to 500 nM, respectively.

Take `Cc1nc2ccc(-c3ccc4c(c3)CN(C(=O)N3CCN(c5ccccc5)CC3c3ccccc3)CCO4)cc2[nH]1` (stereo not drawn) [Compound 145, 4-[(2,4-diphenylpiperazin-1-yl)carbonyl]-7-(2-methyl-1H-benzimidazol-6-yl)-2,3,4,5-tetrahydro-1,4-benzoxazepine]: the IC50 fell in the range of 250 to 700 nM at mTORC1 (mTOR/GbL/Raptor) (read-out: IC50) and 1000 to 3000 nM at PI3Kα.

For the compound `Cc1nc2ccc(-c3ccc4c(c3)CN(C(=O)N3CCN(c5ccc(C(F)(F)F)cn5)CC3)CCO4)cc2[nH]1` [Compound 150, 7-(2-methyl-1H-benzimidazol-6-yl)-4-({4-[5-(trifluoromethyl)pyridin-2-yl]piperazin-1-yl}carbonyl)-2,3,4,5-tetrahydro-1,4-benzoxazepine], the 50% inhibitory concentration (IC50) entry was “not active” at mTORC1 (mTOR/GbL/Raptor) and 500 to 1000 nM against PI3Kα.

`Cc1cccc(CN(C)C(=O)N2CCOc3ccc(-c4ccc5nc(C)[nH]c5c4)cc3C2)c1` [Compound 153, N-methyl-7-(2-methyl-1H-benzimidazol-6-yl)-N-[(3-methylphenyl)methyl]-2,3-dihydro-1,4-benzoxazepine-4(5H)-carboxamide]: the IC50 was 250 to 700 nM on mTORC1 (mTOR/GbL/Raptor) (read-out: IC50) and 1000 to 3000 nM on PI3Kα.

For the compound `Cc1ccc(OCC2CN(C(=O)N3CCOc4ccc(-c5ccc6nc(C)[nH]c6c5)cc4C3)CCO2)cc1` (stereo not drawn) [Compound 154, 7-(2-methyl-1H-benzimidazol-6-yl)-4-[(2-{[(4-methylphenyl)oxy]methyl}morpholin-4-yl)carbonyl]-2,3,4,5-tetrahydro-1,4-benzoxazepine], the IC50 on mTORC1 (mTOR/GbL/Raptor) (read-out: IC50) lay in the range of 700 to 2600 nM; on PI3Kα, 1000 to 3000 nM.
